Publication PMC5176352, “Structural basis for subtype-specific inhibition of the P2X7 receptor” (eLife, 2016)
Where two headings read alike, the source gives them in different places. Values belong to the compound of their own block, whether it stands above or below them.

How the values were obtained:
full length pdP2X7 = full length pdP2X7 (Ailuropoda melanoleuca, UniProt G1M6C4); test: YO-PRO-1 uptake assay (inhibition of ATP-triggered dye uptake); assay type: cell-based, giant panda (Ailuropoda melanoleuca)
Text: We further validated the drug-receptor interactions by site-directed mutagenesis on the drug-binding residues. To facilitate robust and systematic data collection, we monitored cellular uptake of the fluorescent dye, YO-PRO-1, as a proxy for receptor activity ([Surprenant et al., 1996]) (Figure 3—figure supplement 4A). […] In particular, interaction with F103 is crucial for the inhibitory action of all five drugs.
(§1) Human embryonic kidney (HEK293) cells were maintained in DMEM medium (Thermo Fisher Scientific) supplemented with 10% FBS (Atlanta Biologicals, Flowery Branch, GA), and 10 μg/mL gentamicin (Thermo Fisher Scientific). HEK293 cells were split into six well plates at a cell density of 2.0 × 10^6 cells/well and incubated overnight. […] Cells were washed with assay buffer (2 mM KCl, 0.1 mM CaCl2, 13 mM Glucose, 147 mM NaCl, 10 mM HEPES (pH 7.3)) and were incubated with 5 μM YO-PRO-1 Iodide (Thermo Fisher Scientific), in the presence or absence of antagonists at multiple concentrations at 37°C for 10 min. Upon application of 1 mM ATP (final), uptake of YO-PRO-1 was recorded with 1 min intervals by following the fluorescence change using a Synergy HT multi-detection microplate reader (Bio-Tek, Winooski, VT; Ex: 485 nm/20, Em:528 nm/20, sensitivity 60). To obtain the dose dependent uptake inhibition by antagonists, the initial rates of YO-PRO-1 uptake were plotted against multiple concentrations of the P2X7 specific drugs. The inhibition curves from five independent measurements were fitted to the Hill equation using Origin software (Originlab, Northampton, MA) to determine the IC50 values.

wildtype pdP2X7 = wildtype pdP2X7 (Ailuropoda melanoleuca, UniProt G1M6C4); test: BzATP dose response of YO-PRO-1 uptake with antagonists, fitted with competitive / non-competitive inhibition models; assay type: cell-based, giant panda (Ailuropoda melanoleuca); settings: for Kb: curve fitting of BzATP dose responses
Text: To clarify the working mechanism for each drug, we measured the dose responses of the P2X7 mediated YO-PRO-1 uptake in the presence of each drug at multiple concentrations. We used BzATP—an artificial but potent agonist of P2X7 receptors—for these experiments to achieve saturating responses in the presence of concentrated antagonist.
as §1
Dose response curves of the YO-PRO-1 uptake experiments were fitted with either competitive or non-competitive inhibition models using Origin 6.0 software (OriginLab) as previously described ([Kenakin, 2006]). For the competitive antagonism model, we used the equation: Response=[A]/KA/[A]KA(1+τ)+[B]/KB+1
where [A] , [B] are the concentrations of BzATP and antagonists, respectively; KA and KB are the equilibrium dissociation-constant of BzATP and antagonists, respectively. […] KB was then determined using the dose response curves in the presence of antagonists. […] For the non-competitive inhibition model, we used the equation: Response=([A]^nτ^nEmax)/([A]^nτ^n+([A](1+α[B]/KB)+KA[B]/KB+KA)^n
where n is the Hill coefficient, and Emax is the maximum initial rate. […] Schild regression analysis was performed as described previously ([Wyllie and Chen, 2007]). Briefly, concentrations of BzATP at half maximal initial rates of YO-PRO-1 uptake in the presence (EC50’) or absence (EC50) of antagonists were determined by fitting the dose responses with the Hill equation.

pdP2X7 = target: T1, pdP2X7 (Ailuropoda melanoleuca, UniProt G1M6C4); test: Whole cell patch clamp ATP dose response
T1 sequence (G1M6C4 2-606): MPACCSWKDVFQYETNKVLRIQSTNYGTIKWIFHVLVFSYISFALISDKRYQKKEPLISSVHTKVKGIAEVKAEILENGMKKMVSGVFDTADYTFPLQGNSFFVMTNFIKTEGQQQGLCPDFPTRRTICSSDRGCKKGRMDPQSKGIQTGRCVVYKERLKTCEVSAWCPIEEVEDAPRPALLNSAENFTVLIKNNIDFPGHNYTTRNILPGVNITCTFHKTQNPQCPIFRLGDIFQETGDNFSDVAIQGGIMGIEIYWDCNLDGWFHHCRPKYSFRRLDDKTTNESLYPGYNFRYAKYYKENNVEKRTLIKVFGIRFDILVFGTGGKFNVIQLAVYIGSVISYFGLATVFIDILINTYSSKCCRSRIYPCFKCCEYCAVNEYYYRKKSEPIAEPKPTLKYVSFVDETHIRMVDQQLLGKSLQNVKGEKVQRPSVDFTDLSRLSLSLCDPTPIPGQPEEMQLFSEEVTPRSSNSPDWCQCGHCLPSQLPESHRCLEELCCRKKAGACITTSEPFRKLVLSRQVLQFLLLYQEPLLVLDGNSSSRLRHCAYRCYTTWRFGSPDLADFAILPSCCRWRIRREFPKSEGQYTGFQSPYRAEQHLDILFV

pdP2X7cryst = target: T2, pdP2X7cryst (Ailuropoda melanoleuca, UniProt G1M6C4, E175K/N242S/N285S/R126A/V36A); test: Whole cell patch clamp ATP dose response
T2 sequence (G1M6C4 23-360 V36A/R126A/E175K/N242S/N285S): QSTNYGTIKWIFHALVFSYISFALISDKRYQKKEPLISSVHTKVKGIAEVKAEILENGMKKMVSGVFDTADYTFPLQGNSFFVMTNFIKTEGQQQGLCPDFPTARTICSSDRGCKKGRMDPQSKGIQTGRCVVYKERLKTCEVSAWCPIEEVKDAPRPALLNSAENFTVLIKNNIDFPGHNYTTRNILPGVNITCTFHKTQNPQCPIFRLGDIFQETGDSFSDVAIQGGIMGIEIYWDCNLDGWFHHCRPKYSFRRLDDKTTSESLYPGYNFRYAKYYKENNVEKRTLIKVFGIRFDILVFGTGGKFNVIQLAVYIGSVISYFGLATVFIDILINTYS

P2X7 receptor = target: P2X7 receptor; set-up: method as in Yan et al., 2010; settings: under physiological ion concentrations; ref Yan et al., 2010; read-out: EC50 for initial activation; cited from earlier work
[1] = HEK293 cells, YO-PRO-1 uptake initiated with 1 mM ATP, initial rates, wildtype, read-out: IC50
[2] = competitive model, read-out: KB (equilibrium dissociation-constant of antagonist), competitive antagonism model
[3] = non-competitive model, α = 1, read-out: KB (equilibrium dissociation-constant of antagonist), non-competitive inhibition model
[4] = KB (equilibrium dissociation-constant of antagonist), competitive antagonism model, competitive model
[5] = KB (equilibrium dissociation-constant of antagonist), non-competitive inhibition model, non-competitive model, α = 1
[6] = data without antagonists, non-competitive model equation
[7] = dose response without antagonist, competitive model equation

SMILES: COc1ccc(CC(=O)NC(N/C(=N/C#N)Nc2cccc3ncccc23)C(C)(C)C)cc1OC (centres unmarked) [A740003, N-(1-{[(cyanoimino)(5-quinolinylamino)methyl]amino}-2,2-dimethylpropyl)-2-(3,4-dimethoxyphenyl)acetamide]
IC50 (full length pdP2X7; [1]): 0.0693 µM | Kb (wildtype pdP2X7; [2]): 0.024 µM | Kb (wildtype pdP2X7; [3]): 1.2 µM

SMILES: C[C@H](N/C(=N/C#N)Nc1cccc2ncccc12)c1ccccc1 [A804598, 2-cyano-1-[(1S)-1-phenylethyl]-3-quinolin-5-ylguanidine]
IC50 (full length pdP2X7; [1]): 0.0217 µM | Kb (wildtype pdP2X7; [2]): 0.015 µM | Kb (wildtype pdP2X7; [3]): 0.57 µM

SMILES: Nc1ncnc2c1ncn2[C@@H]1O[C@H](COP(=O)(O)OP(=O)(O)OP(=O)(O)O)[C@@H](O)[C@H]1O [ATP, adenosine triphosphate]
EC50 (pdP2X7): 122 µM | EC50 (pdP2X7cryst): 40 µM | EC50 (P2X7 receptor): ≥ 1000 µM

SMILES: O=C(CC12CC3CC(CC(C3)C1)C2)Nc1cccc2nc(NCCNCCO)ccc12 [AZ10606120]
IC50 (full length pdP2X7): 0.231 µM | Kb (wildtype pdP2X7; [4]): 0.056 µM | Kb (wildtype pdP2X7; [5]): 3.4 µM

The remaining lines, values ahead:

KA (equilibrium dissociation-constant of BzATP), non-competitive inhibition model (wildtype pdP2X7; [6]): 220 µM | n (Hill coefficient), non-competitive inhibition model (wildtype pdP2X7; [6]): 2.6 | τ, non-competitive inhibition model (wildtype pdP2X7; [6]): 10 | KA (equilibrium dissociation-constant of BzATP), competitive antagonism model (wildtype pdP2X7; [7]): 28 µM | τ, competitive antagonism model (wildtype pdP2X7; [7]): 0.031
SMILES: Nc1ncnc2c1ncn2[C@@H]1O[C@H](COP(=O)(O)OP(=O)(O)OP(=O)(O)O)[C@@H](OC(=O)c2ccc(C(=O)c3ccccc3)cc2)[C@H]1O [BzATP]

IC50 (full length pdP2X7): 8.9 µM | Kb (wildtype pdP2X7; [4]): 3 µM | Kb (wildtype pdP2X7; [5]): 266 µM
SMILES: Cc1ccc(CN2CCNCC2)cc1NC(=O)CNc1ccc(F)c(F)c1 [GW791343]

IC50 (full length pdP2X7): 0.0119 µM | Kb (wildtype pdP2X7; [4]): 0.0017 µM | Kb (wildtype pdP2X7; [5]): 0.14 µM
SMILES: O=C(NCC1(N2CCN(c3ccccc3)CC2)CCOCC1)c1cccnc1Sc1ccccc1 [JNJ47965567]
